The text below walks through data of patent publication US9776995B2, “Bicyclic sulfonamide compounds as sodium channel inhibitors” (AMGEN INC., priority 2013, dated 2017).

Structures are written as SMILES.

Nav 1.7, sequence (Q15858 whole entry): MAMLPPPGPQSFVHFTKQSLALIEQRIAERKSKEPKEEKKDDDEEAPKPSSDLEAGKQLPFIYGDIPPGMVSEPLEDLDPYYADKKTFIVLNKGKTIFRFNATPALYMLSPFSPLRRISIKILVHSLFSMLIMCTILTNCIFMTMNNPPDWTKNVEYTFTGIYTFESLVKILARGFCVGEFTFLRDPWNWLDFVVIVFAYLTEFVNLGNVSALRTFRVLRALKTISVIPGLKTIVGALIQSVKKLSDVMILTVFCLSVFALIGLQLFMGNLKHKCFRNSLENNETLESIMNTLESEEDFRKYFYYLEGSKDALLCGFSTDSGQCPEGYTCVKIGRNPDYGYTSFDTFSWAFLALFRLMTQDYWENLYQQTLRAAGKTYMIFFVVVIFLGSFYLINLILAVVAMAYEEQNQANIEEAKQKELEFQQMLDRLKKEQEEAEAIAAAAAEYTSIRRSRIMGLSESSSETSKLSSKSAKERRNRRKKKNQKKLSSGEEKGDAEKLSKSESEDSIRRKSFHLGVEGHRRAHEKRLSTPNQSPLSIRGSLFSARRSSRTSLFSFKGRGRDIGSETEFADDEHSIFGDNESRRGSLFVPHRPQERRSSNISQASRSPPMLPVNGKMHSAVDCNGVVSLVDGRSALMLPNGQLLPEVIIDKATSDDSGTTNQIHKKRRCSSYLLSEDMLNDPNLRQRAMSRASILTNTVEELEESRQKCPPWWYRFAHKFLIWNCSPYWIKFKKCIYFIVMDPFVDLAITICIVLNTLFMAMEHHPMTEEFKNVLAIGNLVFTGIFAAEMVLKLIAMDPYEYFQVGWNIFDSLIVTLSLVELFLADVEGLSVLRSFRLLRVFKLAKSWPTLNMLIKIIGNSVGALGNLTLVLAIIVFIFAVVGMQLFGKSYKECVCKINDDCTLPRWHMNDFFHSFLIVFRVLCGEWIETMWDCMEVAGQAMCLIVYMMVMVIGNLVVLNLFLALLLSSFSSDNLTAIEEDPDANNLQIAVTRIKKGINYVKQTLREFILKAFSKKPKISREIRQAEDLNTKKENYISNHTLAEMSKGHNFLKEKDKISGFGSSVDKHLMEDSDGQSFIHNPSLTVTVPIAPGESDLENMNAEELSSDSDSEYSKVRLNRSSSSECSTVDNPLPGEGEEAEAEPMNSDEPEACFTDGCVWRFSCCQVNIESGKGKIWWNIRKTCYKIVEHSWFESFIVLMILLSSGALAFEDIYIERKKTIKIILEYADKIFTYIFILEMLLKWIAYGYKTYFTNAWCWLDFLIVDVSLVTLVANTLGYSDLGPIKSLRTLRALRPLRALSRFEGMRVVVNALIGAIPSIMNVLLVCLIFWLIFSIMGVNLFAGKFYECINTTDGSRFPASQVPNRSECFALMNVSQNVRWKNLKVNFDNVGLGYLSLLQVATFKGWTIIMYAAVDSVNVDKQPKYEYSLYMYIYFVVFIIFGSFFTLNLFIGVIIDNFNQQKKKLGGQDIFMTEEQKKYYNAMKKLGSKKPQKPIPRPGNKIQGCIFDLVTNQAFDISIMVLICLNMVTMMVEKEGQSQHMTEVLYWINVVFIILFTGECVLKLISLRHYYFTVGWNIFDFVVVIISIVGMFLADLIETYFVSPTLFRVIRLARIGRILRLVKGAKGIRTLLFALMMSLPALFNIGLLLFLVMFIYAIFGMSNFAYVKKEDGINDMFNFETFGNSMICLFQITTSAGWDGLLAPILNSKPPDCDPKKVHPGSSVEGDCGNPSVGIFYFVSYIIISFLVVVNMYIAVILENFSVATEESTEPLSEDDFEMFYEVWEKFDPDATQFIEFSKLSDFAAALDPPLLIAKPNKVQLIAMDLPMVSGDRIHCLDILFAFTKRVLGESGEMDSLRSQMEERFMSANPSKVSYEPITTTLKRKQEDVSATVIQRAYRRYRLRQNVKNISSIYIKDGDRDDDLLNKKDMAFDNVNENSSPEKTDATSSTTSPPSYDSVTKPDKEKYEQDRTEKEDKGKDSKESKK

The first test has as its target Nav 1.7 (Homo sapiens (Human), UniProt Q15858). Put plainly: Nav 1.7 in vitro PX assay (PatchXpress whole cell voltage clamp).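 Also: holding potential set for 20 to 50% inactivation, sodium current evoked by a 20 ms step to −10 mV, peak current inhibition read after compound exposure, 3–5 cells per concentration.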
Conditions: not given
It is filed as cell-based.
As a reminder, the IC50 is the concentration that inhibits the measured activity by half. A low value points to greater potency. `COc1cc(-c2ccc(F)c(Cl)c2)c(Cl)cc1-c1ncnc2cc(S(=O)(=O)Nc3ncccn3)ccc12` [Example 329, 4-(2,3′-dichloro-4′-fluoro-5-methoxy-[1,1′-biphenyl]-4-yl)-N-(pyrimidin-2-yl)quinazoline-7-sulfonamide]: the IC50 is 0.043 µM.

The test is the same for the next values; noted with them: HEK 293 cells stably transfected with human Nav1.7; PatchXpress; partially inactivated state.
`COc1cc(-c2cccc(Cl)c2)c(F)cc1-c1ncnc2cc(S(=O)(=O)Nc3ncccn3)ccc12` [Example 315, 4-(3′-chloro-2-fluoro-5-methoxy-4-biphenylyl)-N-2-pyrimidinyl-7-quinazolinesulfonamide]: inhibition was half-maximal at 0.048 µM (IC50).

Molecule `COc1cc(F)cc(-c2cc(OC)c(-c3nccc4cc(S(=O)(=O)Nc5ccon5)ccc34)cc2F)c1` [Example 316, 1-(2,3′-difluoro-5,5′-dimethoxy-4-biphenylyl)-N-3-isoxazolyl-6-isoquinolinesulfonamide] registered an IC50 of 0.04 µM. The molecule `COc1cc(-c2cccc(F)c2)c(Cl)cc1-c1cn(C)c(=O)c2cc(S(=O)(=O)Nc3ccon3)ccc12` [Example 328, 4-(2-chloro-3′-fluoro-5-methoxy-[1,1′-biphenyl]-4-yl)-N-(isoxazol-3-yl)-2-methyl-1-oxo-1,2-dihydroisoquinoline-7-sulfonamide trifluoromethanesulfonate] displayed an IC50 of 0.068 µM. The molecule `COc1cc(-c2cccc(F)c2)c(Cl)cc1-c1c(N)cnc2cc(S(=O)(=O)Nc3ccon3)ccc12` [Example 336, 3-amino-4-(2-chloro-3′-fluoro-5-methoxy-[1,1′-biphenyl]-4-yl)-N-(isoxazol-3-yl)quinoline-7-sulfonamide] gave an IC50 of 0.035 µM.

Turning to `COc1cc(-c2cccc(Cl)c2)c(F)cc1-c1c[nH]c(=O)c2cc(S(=O)(=O)Nc3ccon3)ccc12` [Example 343, 4-(3′-chloro-2-fluoro-5-methoxy-[1,1′-biphenyl]-4-yl)-N-(isoxazol-3-yl)-1-oxo-1,2-dihydroisoquinoline-7-sulfonamide], the midpoint of inhibition, the IC50, lay at 0.163 µM.

In turn, `COc1cc(-c2cccc(Cl)c2)c(F)cc1-c1cn(C)c(=O)c2cc(S(=O)(=O)Nc3ccon3)ccc12` [Example 344, 4-(3′-chloro-2-fluoro-5-methoxy-[1,1′-biphenyl]-4-yl)-N-(isoxazol-3-yl)-2-methyl-1-oxo-1,2-dihydroisoquinoline-7-sulfonamide] gave an IC50 of 0.049 µM.

Take `COc1cc(-c2ccc(F)c(Cl)c2)c(C)cc1-c1ncnc2cc(S(=O)(=O)Nc3ncccn3)ccc12` [Example 345, 4-(3′-chloro-4′-fluoro-5-methoxy-2-methyl-[1,1′-biphenyl]-4-yl)-N-(pyrimidin-2-yl)quinazoline-7-sulfonamide]: 0.078 µM corresponded to half-maximal inhibition (IC50).

The same test, now with this note: in-vitro Nav 1.7 PX (PatchXpress).
In turn, `COc1cc(-c2cccc(F)c2)c(Cl)cc1-c1nccc2cc(S(=O)(=O)Nc3ncc(F)cn3)ccc12` [Example 294, 1-(2-chloro-3′-fluoro-5-methoxy-4-biphenylyl)-N-(5-fluoro-2-pyrimidinyl)-6-isoquinolinesulfonamide] registered an IC50 of 0.256 µM.

`COc1cc(-c2cc(C)c(Cl)c(F)c2)c(F)cc1-c1ncnc2cc(S(=O)(=O)Nc3ccon3)ccc12` [Example 295, 4-(4′-chloro-2,3′-difluoro-5-methoxy-5′-methyl-4-biphenylyl)-N-3-isoxazolyl-7-quinazolinesulfonamide] gave an IC50 of 0.059 µM.

`COc1cc(-c2ccc(C)c(Cl)c2F)c(F)cc1-c1ncnc2cc(S(=O)(=O)Nc3ccon3)ccc12` [Example 296, 4-(3′-chloro-2,2′-difluoro-5-methoxy-4′-methyl-4-biphenylyl)-N-3-isoxazolyl-7-quinazolinesulfonamide]: the IC50 came to 0.105 µM. Still for that read-out and setting: the figure for `COc1cc(-c2cc(C)cc(Cl)c2)c(F)cc1-c1ncnc2cc(S(=O)(=O)Nc3ccon3)ccc12` [Example 297, 4-(3′-chloro-2-fluoro-5-methoxy-5′-methyl-4-biphenylyl)-N-3-isoxazolyl-7-quinazolinesulfonamide] is 0.074 µM. As to `COc1cc(-c2cc(Cl)cc(Cl)c2)c(F)cc1-c1ncnc2cc(S(=O)(=O)Nc3ccon3)ccc12` [Example 300, 4-(3′,5′-dichloro-2-fluoro-5-methoxy-4-biphenylyl)-N-3-isoxazolyl-7-quinazolinesulfonamide], the midpoint of inhibition, the IC50, lay at 0.026 µM. Turning to `COc1cc(-c2cc(C)cc(F)c2)c(F)cc1-c1ncnc2cc(S(=O)(=O)Nc3ccon3)ccc12` [Example 301, 4-(2,3′-difluoro-5-methoxy-5′-methyl-4-biphenylyl)-N-3-isoxazolyl-7-quinazolinesulfonamide], half-maximal inhibition (IC50) required 0.032 µM. The same measure, in the same setting: the figure for `COc1cc(-c2cc(F)cc(Cl)c2)c(F)cc1-c1ncnc2cc(S(=O)(=O)Nc3ccon3)ccc12` [Example 302, 4-(3′-chloro-2,5′-difluoro-5-methoxy-4-biphenylyl)-N-3-isoxazolyl-7-quinazolinesulfonamide] is 0.022 µM. Consider `COc1cc(-c2ccc(OCC(F)(F)F)nc2)ccc1-c1nccc2cc(S(=O)(=O)Nc3ccon3)ccc12` [Example 303, N-3-isoxazolyl-1-(2-methoxy-4-(6-(2,2,2-trifluoroethoxy)-3-pyridinyl)phenyl)-6-isoquinolinesulfonamide], for which half-maximal inhibition (IC50) required 0.48 µM.

As for `CCOc1ccc(-c2cc(OC)c(-c3ncnc4cc(S(=O)(=O)Nc5ccon5)ccc34)cc2F)cc1C` [Example 304, 4-(4′-ethoxy-2-fluoro-5-methoxy-3′-methyl-4-biphenylyl)-N-3-isoxazolyl-7-quinazolinesulfonamide], half-maximal inhibition (IC50) was put at 0.61 µM. The molecule `COc1cc(F)cc(-c2cc(OC)c(-c3nccc4cc(S(=O)(=O)Nc5ccon5)ccc34)cc2F)c1` [Example 305, 1-(2,3′-difluoro-5,5′-dimethoxy-4-biphenylyl)-N-3-isoxazolyl-6-isoquinolinesulfonamide] returned an IC50 of 0.04 µM. Same read-out and setting: in the case of `COc1cc(-c2cc(F)cc(C3CC3)c2)c(C)cc1-c1ncnc2cc(S(=O)(=O)Nc3ccon3)ccc12` [Example 306, 4-(3′-cyclopropyl-5′-fluoro-5-methoxy-2-methyl-4-biphenylyl)-N-3-isoxazolyl-7-quinazolinesulfonamide] it was 0.061 µM; in that of `COc1cc(-c2cc(C)ccc2F)c(C)cc1-c1ncnc2cc(S(=O)(=O)Nc3ccon3)ccc12` [Example 307, 4-(2′-fluoro-5-methoxy-2,5′-dimethyl-4-biphenylyl)-N-3-isoxazolyl-7-quinazolinesulfonamide], 0.113 µM.

`COc1cc(-c2cc(Cl)ccc2F)c(C)cc1-c1ncnc2cc(S(=O)(=O)Nc3ccon3)ccc12` [Example 308, 4-(5′-chloro-2′-fluoro-5-methoxy-2-methyl-4-biphenylyl)-N-3-isoxazolyl-7-quinazolinesulfonamide] displayed an IC50 of 0.056 µM. Same read-out and setting: the figure for `COc1cc(-c2cc(C)cc(F)c2)c(Cl)cc1-c1ncnc2cc(S(=O)(=O)Nc3ccon3)ccc12` [Example 309, 4-(2-chloro-3′-fluoro-5-methoxy-5′-methyl-4-biphenylyl)-N-3-isoxazolyl-7-quinazolinesulfonamide] is 0.04 µM; for `COc1cc(-c2cc(F)cc(Cl)c2)c(Cl)cc1-c1ncnc2cc(S(=O)(=O)Nc3ccon3)ccc12` [Example 310, 4-(2,3′-dichloro-5′-fluoro-5-methoxy-4-biphenylyl)-N-3-isoxazolyl-7-quinazolinesulfonamide] it is 0.045 µM.

The molecule `COc1cc(-c2cc(C)cc(Cl)c2)c(Cl)cc1-c1ncnc2cc(S(=O)(=O)Nc3ccon3)ccc12` [Example 311, 4-(2,3′-dichloro-5-methoxy-5′-methyl-4-biphenylyl)-N-3-isoxazolyl-7-quinazolinesulfonamide] showed an IC50 of 0.04 µM.
